Where a name gives a salt, the structure may show the parent alone.
How the values were obtained:
human JAK1 = molecular target: T1, human JAK1 (Homo sapiens, UniProt P23458); assay: In Vitro JAK Kinase Assay (HTRF, phosphorylation of a biotinylated peptide), JAK1; assay type: biochemical; conditions: catalytic domain a.a. 837-1142, assay of Example A
T1 construct: human JAK1 (a.a. 837-1142); His tag (N); made in house; host or cells: insect cells (baculovirus)
Experimental: (§1) The catalytic activity of JAK1, JAK2 or JAK3 was assayed by measuring the phosphorylation of a biotinylated peptide. The phosphorylated peptide was detected by homogenous time resolved fluorescence (HTRF). […] Reactions were carried out at room temperature for 1 hour and then stopped with 20 μL 45 mM EDTA, 300 nM SA-APC, 6 nM Eu-Py20 in assay buffer (Perkin Elmer, Boston, Mass.). Binding to the Europium labeled antibody took place for 40 minutes and HTRF signal was measured on a Fusion plate reader (Perkin Elmer, Boston, Mass.).

human JAK2 = molecular target: T2, human JAK2 (Homo sapiens, UniProt O60674); assay: In Vitro JAK Kinase Assay (HTRF, phosphorylation of a biotinylated peptide), JAK2; assay type: biochemical; conditions: assay of Example A
T2 construct: JAK2 (a.a. 828-1132); His tag (N); made in house; host or cells: insect cells (baculovirus)
Experimental: as §1

T2 sequence (O60674 828-1132): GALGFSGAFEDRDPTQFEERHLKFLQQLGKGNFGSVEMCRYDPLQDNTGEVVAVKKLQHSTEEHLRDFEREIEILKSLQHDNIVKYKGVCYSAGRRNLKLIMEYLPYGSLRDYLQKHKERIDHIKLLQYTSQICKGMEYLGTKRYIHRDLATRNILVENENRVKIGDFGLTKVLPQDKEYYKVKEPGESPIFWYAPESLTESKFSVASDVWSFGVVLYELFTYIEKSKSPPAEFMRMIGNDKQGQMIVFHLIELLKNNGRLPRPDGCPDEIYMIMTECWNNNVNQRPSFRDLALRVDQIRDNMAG
T1 sequence (P23458 849-1154): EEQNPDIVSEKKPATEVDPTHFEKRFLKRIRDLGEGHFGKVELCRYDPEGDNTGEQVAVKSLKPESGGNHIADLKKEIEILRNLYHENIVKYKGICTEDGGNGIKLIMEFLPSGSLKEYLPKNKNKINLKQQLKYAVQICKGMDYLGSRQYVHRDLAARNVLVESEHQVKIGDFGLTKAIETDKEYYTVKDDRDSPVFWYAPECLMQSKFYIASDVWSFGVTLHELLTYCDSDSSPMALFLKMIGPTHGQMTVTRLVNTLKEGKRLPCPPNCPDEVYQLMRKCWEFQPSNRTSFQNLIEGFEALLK

IC50 (human JAK1; Table 4)	JAK2/JAK1 IC50 ratio (human JAK2; Table 4)	IC50 (human JAK1; Table 5)	JAK2/JAK1 IC50 ratio (human JAK2; Table 5)	SMILES
< 10 nM	≧10	–	–	N#CCC1(n2cc(-c3ncnc4[nH]ccc34)cn2)CN([C@H]2CC[C@@H](Oc3cc(CN4CC(O)C4)nc(C(F)(F)F)n3)CC2)C1 [Example 24, {1-(cis-4-{[6-[(3-hydroxyazetidin-1-yl)methyl]-2-(trifluoromethyl)pyrimidin-4-yl]oxy}cyclohexyl)-3-[4-(7H-pyrrolo[2,3-d]pyrimidin-4-yl)-1H-pyrazol-1-yl]azetidin-3-yl}acetonitrile tris(trifluoroacetate) (salt)]
< 10 nM	≧10	–	–	N#CCC1(n2cc(-c3ncnc4[nH]ccc34)cn2)CN([C@H]2CC[C@@H](Oc3cc(CCF)nc(C(F)(F)F)n3)CC2)C1 [Example 60, {1-(cis-4-{[6-(2-fluoro ethyl)-2-(trifluoromethyl)pyrimidin-4-yl]oxy}cyclohexyl)-3-[4-(7H-pyrrolo[2,3-d]pyrimidin-4-yl)-1H-pyrazol-1-yl]azetidin-3-yl}acetonitrile tris(trifluoroacetate)]
< 10 nM	≧10	–	–	CN(C)Cc1cc(O[C@H]2CC[C@@H](N3CC(CC#N)(n4cc(-c5ncnc6[nH]ccc56)cn4)C3)CC2)nc(C(F)(F)F)n1 [Example 1, {1-(cis-4-{[6-[(Dimethylamino)methyl]-2-(trifluoromethyl)pyrimidin-4-yl]oxy}cyclohexyl)-3-[4-(7H-pyrrolo[2,3-d]pyrimidin-4-yl)-1H-pyrazol-1-yl]azetidin-3-yl}acetonitrile tetrakis(trifluoroacetate)]
< 10 nM	≧10	–	–	N#CCC1(n2cc(-c3ncnc4[nH]ccc34)cn2)CN([C@H]2CC[C@@H](Oc3cc(CO)nc(C(F)(F)F)n3)CC2)C1 [Example 2, {1-(cis-4-{[6-(Hydroxymethyl)-2-(trifluoromethyl)pyrimidin-4-yl]oxy}cyclohexyl)-3-[4-(7H-pyrrolo[2,3-d]pyrimidin-4-yl)-1H-pyrazol-1-yl]azetidin-3-yl}acetonitrile bis(trifluoroacetate)]
< 10 nM	≧10	–	–	COCCNC(=O)c1cc(O[C@H]2CC[C@@H](N3CC(CC#N)(n4cc(-c5ncnc6[nH]ccc56)cn4)C3)CC2)nc(C(F)(F)F)n1 [Example 50, 6-[(cis-4-{3-(cyanomethyl)-3-[4-(7H-pyrrolo[2,3-d]pyrimidin-4-yl)-1H-pyrazol-1-yl]azetidin-1-yl}cyclohexyl)oxy]-N-(2-methoxyethyl)-2-(trifluoromethyl)pyrimidine-4-carboxamide bis(trifluoroacetate)]
–	–	< 10 nM	≧10	C[C@@H](CO)NCc1cc(O[C@H]2CC[C@@H](N3CC(CC#N)(n4cc(-c5ncnc6[nH]ccc56)cn4)C3)CC2)nc(C(F)(F)F)c1 [Example 73, {1-(cis-4-{[4-({[(1S)-2-hydroxy-1-methylethyl]amino}methyl)-6-(trifluoromethyl)pyridin-2-yl]oxy}cyclohexyl)-3-[4-(7H-pyrrolo[2,3-d]pyrimidin-4-yl)-1H-pyrazol-1-yl]azetidin-3-yl}acetonitrile tris(trifluoroacetate)]
< 10 nM	≧10	–	–	CN(CCO)Cc1cc(O[C@H]2CC[C@@H](N3CC(CC#N)(n4cc(-c5ncnc6[nH]ccc56)cn4)C3)CC2)nc(C(F)(F)F)n1 [Example 12, {1-(cis-4-{[6-{[(2-hydroxyethyl)(methyl)amino]methyl}-2-(trifluoromethyl)pyrimidin-4-yl]oxy}cyclohexyl)-3-[4-(7H-pyrrolo[2,3-d]pyrimidin-4-yl)-1H-pyrazol-1-yl]azetidin-3-yl}acetonitrile tris(trifluoroacetate) (salt)]
< 10 nM	≧10	–	–	CC(O)(CO)c1cc(OC2CCC(N3CC(CC#N)(n4cc(-c5ncnc6[nH]ccc56)cn4)C3)CC2)nc(C(F)(F)F)n1 (single isomer, unassigned) [Example 57, {1-(cis-4-{[6-(1,2-dihydroxy-1-methylethyl)-2-(trifluoromethyl)pyrimidin-4-yl]oxy}cyclohexyl)-3-[4-(7H-pyrrolo[2,3-d]pyrimidin-4-yl)-1H-pyrazol-1-yl]azetidin-3-yl}acetonitrile tris(trifluoroacetate) (salt)]
< 10 nM	–	–	–	CC(C)CNCc1cc(O[C@H]2CC[C@@H](N3CC(CC#N)(n4cc(-c5ncnc6[nH]ccc56)cn4)C3)CC2)nc(C(F)(F)F)n1 [Example 35, {1-(cis-4-{[6-[(isobutylamino)methyl]-2-(trifluoromethyl)pyrimidin-4-yl]oxy}cyclohexyl)-3-[4-(7H-pyrrolo[2,3-d]pyrimidin-4-yl)-1H-pyrazol-1-yl]azetidin-3-yl}acetonitrile tris(trifluoroacetate)]
–	–	< 10 nM	–	CC(C)(CO)NCc1cc(O[C@H]2CC[C@@H](N3CC(CC#N)(n4cc(-c5ncnc6[nH]ccc56)cn4)C3)CC2)nc(C(F)(F)F)c1 [Example 71, {1-(cis-4-{[4-{[(2-hydroxy-1,1-dimethylethyl)amino]methyl}-6-(trifluoromethyl)pyridin-2-yl]oxy}cyclohexyl)-3-[4-(7H-pyrrolo[2,3-d]pyrimidin-4-yl)-1H-pyrazol-1-yl]azetidin-3-yl}acetonitrile tris(trifluoroacetate) (salt)]

Further lines, the compound ahead of its results:

SMILES	IC50 (human JAK1; Table 4)	JAK2/JAK1 IC50 ratio (human JAK2; Table 4)	IC50 (human JAK1; Table 5)	JAK2/JAK1 IC50 ratio (human JAK2; Table 5)
N#CCC1(n2cc(-c3ncnc4[nH]ccc34)cn2)CN([C@H]2CC[C@@H](Oc3cc(CNCC(F)(F)F)nc(C(F)(F)F)n3)CC2)C1.O=C(O)C(F)(F)F.O=C(O)C(F)(F)F.O=C(O)C(F)(F)F [Example 14, [3-[4-(7H-pyrrolo[2,3-d]pyrimidin-4-yl)-1H-pyrazol-1-yl]-1-(cis-4-{[6-{[(2,2,2-trifluoroethyl)amino]methyl}-2-(trifluoromethyl)pyrimidin-4-yl]oxy}cyclohexyl)azetidin-3-yl]acetonitrile tris(trifluoroacetate)]	< 10 nM	≧10	–	–
N#CCC1(n2cc(-c3ncnc4[nH]ccc34)cn2)CN([C@H]2CC[C@@H](Oc3cc(CNC4CC4)nc(C(F)(F)F)n3)CC2)C1.O=C(O)C(F)(F)F.O=C(O)C(F)(F)F.O=C(O)C(F)(F)F [Example 7, {1-(cis-4-{[6-[(cyclopropylamino)methyl]-2-(trifluoromethyl)pyrimidin-4-yl]oxy}cyclohexyl)-3-[4-(7H-pyrrolo[2,3-d]pyrimidin-4-yl)-1H-pyrazol-1-yl]azetidin-3-yl}acetonitrile tris(trifluoroacetate)]	< 10 nM	≧10	–	–
COCCN(C)Cc1cc(O[C@H]2CC[C@@H](N3CC(CC#N)(n4cc(-c5ncnc6[nH]ccc56)cn4)C3)CC2)nc(C(F)(F)F)n1.O=C(O)C(F)(F)F.O=C(O)C(F)(F)F.O=C(O)C(F)(F)F [Example 42, {1-(cis-4-{[6-{[(2-methoxyethyl)(methyl)amino]methyl}-2-(trifluoromethyl)pyrimidin-4-yl]oxy}cyclohexyl)-3-[4-(7H-pyrrolo[2,3-d]pyrimidin-4-yl)-1H-pyrazol-1-yl]azetidin-3-yl}acetonitrile tris(trifluoroacetate)]	< 10 nM	≧10	–	–
N#CCC1(n2cc(-c3ncnc4[nH]ccc34)cn2)CN([C@H]2CC[C@@H](Oc3cc(CNCCO)cc(C(F)(F)F)n3)CC2)C1 [Example 74, {1-(cis-4-{[4-{[(2-hydroxyethyl)amino]methyl}-6-(trifluoromethyl)pyridin-2-yl]oxy}cyclohexyl)-3-[4-(7H-pyrrolo[2,3-d]pyrimidin-4-yl)-1H-pyrazol-1-yl]azetidin-3-yl}acetonitrile tris(trifluoroacetate)]	–	–	< 10 nM	≧10
C[C@H](CO)NCc1cc(O[C@H]2CC[C@@H](N3CC(CC#N)(n4cc(-c5ncnc6[nH]ccc56)cn4)C3)CC2)nc(C(F)(F)F)c1 [Example 75, {1-(cis-4-{[4-({[(1R)-2-hydroxy-1-methylethyl]amino}methyl)-6-(trifluoromethyl)pyridin-2-yl]oxy}cyclohexyl)-3-[4-(7H-pyrrolo[2,3-d]pyrimidin-4-yl)-1H-pyrazol-1-yl]azetidin-3-yl}acetonitrile tris(trifluoroacetate)]	–	–	< 10 nM	≧10
N#CCC1(n2cc(-c3ncnc4[nH]ccc34)cn2)CN([C@H]2CC[C@@H](Oc3cc(CN4CCC(O)CC4)cc(C(F)(F)F)n3)CC2)C1 [Example 97, {1-(cis-4-{[4-[(4-hydroxypiperidin-1-yl)methyl]-6-(trifluoromethyl)pyridin-2-yl]oxy}cyclohexyl)-3-[4-(7H-pyrrolo[2,3-d]pyrimidin-4-yl)-1H-pyrazol-1-yl]azetidin-3-yl}acetonitrile tris(trifluoroacetate)]	–	–	< 10 nM	–
CCCCNCc1cc(O[C@H]2CC[C@@H](N3CC(CC#N)(n4cc(-c5ncnc6[nH]ccc56)cn4)C3)CC2)nc(C(F)(F)F)n1.O=C(O)C(F)(F)F.O=C(O)C(F)(F)F.O=C(O)C(F)(F)F [Example 34, {1-(cis-4-{[6-[(butylamino)methyl]-2-(trifluoromethyl)pyrimidin-4-yl]oxy}cyclohexyl)-3-[4-(7H-pyrrolo[2,3-d]pyrimidin-4-yl)-1H-pyrazol-1-yl]azetidin-3-yl}acetonitrile tris(trifluoroacetate)]	< 10 nM	≧10	–	–
N#CCC1(n2cc(-c3ncnc4[nH]ccc34)cn2)CN([C@H]2CC[C@@H](Oc3cc(CN4CCCCC4)nc(C(F)(F)F)n3)CC2)C1 [Example 30, {1-(cis-4-{[6-(piperidin-1-ylmethyl)-2-(trifluoromethyl)pyrimidin-4-yl]oxy}cyclohexyl)-3-[4-(7H-pyrrolo[2,3-d]pyrimidin-4-yl)-1H-pyrazol-1-yl]azetidin-3-yl}acetonitrile tris(trifluoroacetate)]	< 10 nM	–	–	–
